The source of these data is PubChem BioAssay (NCI).

SMILES strings stand for the structures.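 All cell lines were grown in 96-well plates and treated with compound for 48 hours. GI50 marks 50% less growth. The concentration for full growth arrest is given as TGI.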

Among the test systems are 786-0 renal; UO-31 renal; EKVX NSCLC; HL-60(TB) leukemia; COLO 205 colon; NCI-H226 lung; HOP-92 NSCLC; NCI-H522 lung; TK-10 renal; NCI-H460 lung.
Common to all, as to test: growth of human tumour cells (NCI), 48 h

For the compound `O=S(=O)([O-])c1ccc(C=Nc2ccccc2)c([O-])c1.O=S(=O)([O-])c1ccc(C=Nc2ccccc2)c([O-])c1.[Co+2]`, the GI50 is 94700 nM with 786-0 renal; 21000 nM in the assay with UO-31 renal; 43.2 µM with EKVX NSCLC; 2700 nM with HL-60(TB) leukemia; 70500 nM with COLO 205 colon; 17700 nM with NCI-H226 lung. The GI50 in the assay with HOP-92 NSCLC, in the assay on NCI-H522 lung and in the assay with TK-10 renal was > 100000 nM each time. In addition, the TGI in the assay on 786-0 renal, with UO-31 renal, with EKVX NSCLC, with HL-60(TB) leukemia, with COLO 205 colon and in the assay on NCI-H226 lung was > 100 µM each time. For the same compound, the TGI in the assay with HOP-92 NSCLC, in the assay on NCI-H522 lung and in the assay with TK-10 renal was > 100 µM each time.
Regarding `Cc1nc2ccccc2c(/C=C/c2ccc(F)cc2)c1C(=O)/C=C/c1ccccc1`, the GI50 is 2030 nM in the assay with 786-0 renal; 1290 nM in the assay with UO-31 renal; 4.38 µM in the assay with EKVX NSCLC; 2550 nM in the assay with HL-60(TB) leukemia; 1850 nM with NCI-H226 lung; 2020 nM in the assay on HOP-92 NSCLC. Further, the values for the GI50 in the assay on NCI-H522 lung, in the assay on TK-10 renal and in the assay on NCI-H460 lung were 2000 nM, 4050 nM and 1790 nM, respectively. The TGI in the assay with 786-0 renal is 4.36 µM; in the assay with UO-31 renal, 2.67 µM; with EKVX NSCLC, 43.5 µM; with HL-60(TB) leukemia, 6.93 µM; in the assay on NCI-H226 lung, 4.16 µM; in the assay on HOP-92 NSCLC it was 31.5 µM. Also, the TGI with NCI-H522 lung was 5.79 µM; with TK-10 renal, > 100 µM; in the assay on NCI-H460 lung, 3.71 µM.
For `COc1cccc(C2=C(c3cn(C)c4c(C)cccc34)C(=O)NC2=O)c1`, the GI50 in the assay on 786-0 renal was 15800 nM; in the assay on UO-31 renal, > 20200 nM; with HL-60(TB) leukemia it was > 25000 nM; with COLO 205 colon, > 25000 nM; with NCI-H226 lung it was 19400 nM; with HOP-92 NSCLC, > 25000 nM. Also, the GI50 in the assay with NCI-H522 lung was > 18200 nM; with TK-10 renal it was > 25000 nM; in the assay on NCI-H460 lung, > 25000 nM. Moreover, the TGI in the assay with 786-0 renal, in the assay on UO-31 renal, in the assay on HL-60(TB) leukemia, with COLO 205 colon, with NCI-H226 lung and in the assay on HOP-92 NSCLC was > 25 µM in each case. For the same compound, the TGI with NCI-H522 lung, with TK-10 renal and in the assay on NCI-H460 lung was > 25 µM in each case.
For `CC[P+](C)(C)CC`, the TGI in the assay with 786-0 renal, with UO-31 renal, in the assay on EKVX NSCLC, in the assay with HL-60(TB) leukemia, with COLO 205 colon and in the assay with NCI-H226 lung was > 100 µM throughout. The TGI in the assay on HOP-92 NSCLC, in the assay with TK-10 renal and in the assay on NCI-H460 lung was > 100 µM throughout.
`CC(C)(C)c1ccc(OCCCCCCCN2CCNCC2)cc1`: the GI50 with 786-0 renal was 1630 nM; with UO-31 renal, 1430 nM; with EKVX NSCLC, 3.04 µM; in the assay with HL-60(TB) leukemia, 1450 nM; with COLO 205 colon, 1490 nM; in the assay with NCI-H226 lung, 1860 nM. Also, the values for the GI50 in the assay with HOP-92 NSCLC, in the assay on TK-10 renal and in the assay with NCI-H460 lung were 1720 nM, 1600 nM and 1830 nM, respectively. The TGI in the assay on 786-0 renal was 3.07 µM; with UO-31 renal it was 3.31 µM; in the assay with EKVX NSCLC it was 12.7 µM; in the assay on HL-60(TB) leukemia, 3.3 µM; in the assay with COLO 205 colon, 3.24 µM; with NCI-H226 lung, 4.1 µM. Besides, the figures for the TGI with HOP-92 NSCLC, in the assay with TK-10 renal and with NCI-H460 lung were 6.11 µM, 3.06 µM and 3.47 µM, respectively.
Take `Cc1ccc(-c2csc3ncnc(Nc4cccc(O)c4)c23)cc1`: the GI50 was 19900 nM in the assay on 786-0 renal; 35500 nM with UO-31 renal; 37.8 µM in the assay with EKVX NSCLC; 18200 nM in the assay on HL-60(TB) leukemia; 36400 nM with COLO 205 colon; 38100 nM in the assay on NCI-H226 lung. In addition, the figures for the GI50 in the assay with HOP-92 NSCLC, in the assay with NCI-H522 lung and with NCI-H460 lung were 14300 nM, 18500 nM and 29200 nM, respectively. Also, the TGI in the assay with 786-0 renal was 42.8 µM; in the assay with UO-31 renal, > 100 µM; in the assay with EKVX NSCLC, 98 µM; in the assay on HL-60(TB) leukemia it was 51.5 µM; in the assay with COLO 205 colon, > 100 µM; with NCI-H226 lung it was > 100 µM. Moreover, the TGI in the assay with HOP-92 NSCLC is 35.9 µM; with NCI-H522 lung, 62.1 µM; in the assay with NCI-H460 lung, 76.3 µM.
Consider `O=C1/C(=C/c2ccc([N+](=O)[O-])s2)Oc2ccc(Br)cc21`, for which the GI50 was 565 nM with 786-0 renal; 166 nM with UO-31 renal; 487 nM in the assay on HL-60(TB) leukemia; 470 nM in the assay on COLO 205 colon; 1140 nM with NCI-H226 lung; 210 nM with HOP-92 NSCLC. For the same compound, the GI50 is 177 nM in the assay on NCI-H522 lung, 389 nM with TK-10 renal and 396 nM in the assay with NCI-H460 lung. For the same compound, the TGI was determined as 4.84 µM in the assay with 786-0 renal; 0.346 µM in the assay on UO-31 renal; 7.5 µM in the assay with HL-60(TB) leukemia; 1.86 µM with COLO 205 colon; 2.84 µM with NCI-H226 lung; 0.606 µM in the assay with HOP-92 NSCLC. Moreover, the results for the TGI in the assay on NCI-H522 lung, with TK-10 renal and with NCI-H460 lung were 0.351 µM, 4.66 µM and 1.63 µM, respectively.
As for `CCCCCCCCCCCCNCCCc1ccccc1`, the GI50 was 1800 nM in the assay with 786-0 renal; 1860 nM in the assay with UO-31 renal; 1890 nM with HL-60(TB) leukemia; 1870 nM with COLO 205 colon; 1870 nM with NCI-H226 lung; 1340 nM in the assay on HOP-92 NSCLC. The GI50 is 1620 nM with NCI-H522 lung, 1630 nM in the assay on TK-10 renal and 1830 nM in the assay with NCI-H460 lung. Besides, the TGI came to 3.33 µM with 786-0 renal; 4.35 µM with UO-31 renal; 3.73 µM in the assay on HL-60(TB) leukemia; 3.43 µM with COLO 205 colon; 3.61 µM in the assay on NCI-H226 lung; 2.83 µM with HOP-92 NSCLC. The TGI in the assay with NCI-H522 lung worked out at 3.03 µM; in the assay with TK-10 renal, 2.98 µM; in the assay with NCI-H460 lung it was 3.4 µM.
